From the supplement of paper PMC5908809

What was measured:
[1] = test system: normal NK cells expanded with K562-aAPC; experiment: percent inhibition of viability; higher = more inhibition; conditions: 72 h, IL-2 2.5 ng/mL
Procedure: (§1)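 Drug sensitivity and resistance testing on K562-aAPC-expanded normal NK cells: 5 concentrations (10-fold steps over a 10,000-fold range), 72 h at 37 °C, viability by CellTiter-Glo normalised to DMSO and benzethonium chloride controls; DSS from the fitted curve.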

DERL-7 (IL-2 2.5 ng/mL) [2] = experiment: as above; conditions: 72 h
IMC-1 (IL-2 20 ng/mL) [3] = experiment: as above; conditions: 72 h
KAI3 (IL-2 2.5 ng/mL) [4] = experiment: as above; conditions: 72 h
KHYG-1 (IL-2 2.5 ng/mL) [5] = experiment: as above; conditions: 72 h
NK-92 (IL-2 2.5 ng/mL) [6] = experiment: as above; conditions: 72 h
NK-YS (IL-2 2.5 ng/mL) [7] = experiment: as above; conditions: 72 h
NKL (IL-2 2.5 ng/mL) [8] = experiment: as above; conditions: 72 h
SNK-6 (IL-2 2.5 ng/mL) [9] = experiment: as above; conditions: 72 h
YT (IL-2 2.5 ng/mL) [10] = experiment: as above; conditions: 72 h
[11] = test system: normal primary NK cells, pool 1 (3 donors) (IL-2 2.5 ng/mL); experiment: as above; conditions: 72 h
[12] = test system: normal primary NK cells, pool 1 (3 donors), resting (IL-2 0 ng/mL); experiment: as above; conditions: 72 h
[13] = test system: normal primary NK cells, pool 2 (3 donors) (IL-2 2.5 ng/mL); experiment: as above; conditions: 72 h
[14] = test system: normal primary NK cells, pool 3 (3 donors) (IL-2 2.5 ng/mL); experiment: as above; conditions: 72 h
[15] = test system: normal NK cells expanded with K562-aAPC; experiment: drug sensitivity score (DSS) (DSS units); higher = more sensitive; extreme values may be limits of the assay; conditions: 72 h; IL-2 2.5 ng/mL
Procedure: as §1

DERL-7 (IL-2 2.5 ng/mL) [16] = experiment: as above; conditions: 72 h
IMC-1 (IL-2 20 ng/mL) [17] = experiment: as above; conditions: 72 h
KAI3 (IL-2 2.5 ng/mL) [18] = experiment: as above; conditions: 72 h
KHYG-1 (IL-2 2.5 ng/mL) [19] = experiment: as above; conditions: 72 h
NK-92 (IL-2 2.5 ng/mL) [20] = experiment: as above; conditions: 72 h
NK-YS (IL-2 2.5 ng/mL) [21] = experiment: as above; conditions: 72 h
NKL (IL-2 2.5 ng/mL) [22] = experiment: as above; conditions: 72 h
SNK-6 (IL-2 2.5 ng/mL) [23] = experiment: as above; conditions: 72 h
YT (IL-2 2.5 ng/mL) [24] = experiment: as above; conditions: 72 h
[25] = test system: normal primary NK cells, pool 1 (3 donors) (IL-2 2.5 ng/mL); experiment: as above; conditions: 72 h
[26] = test system: normal primary NK cells, pool 1 (3 donors), resting (IL-2 0 ng/mL); experiment: as above; conditions: 72 h
[27] = test system: normal primary NK cells, pool 2 (3 donors) (IL-2 2.5 ng/mL); experiment: as above; conditions: 72 h
[28] = test system: normal primary NK cells, pool 3 (3 donors) (IL-2 2.5 ng/mL); experiment: as above; conditions: 72 h

COc1cc(CCc2cc(NC(=O)c3ccc(N4CC(C)NC(C)C4)cc3)n[nH]2)cc(OC)c1 (centres undefined) [AZD4547] (max concentration tested 1000 nM)
percent inhibition of viability [%]
Conditions	0.1 nM	1 nM	10 nM	100 nM	1000 nM
DERL-7 (IL-2 2.5 ng/mL) [2]	0.65	12	4.33	3.09	5.77
IMC-1 (IL-2 20 ng/mL) [3]	-10.2	-0.55	2.58	3.59	11.7
KAI3 (IL-2 2.5 ng/mL) [4]	0.83	0.57	5.8	15.9	18.7
KHYG-1 (IL-2 2.5 ng/mL) [5]	-1.35	-9.6	-4.7	-0.32	6.6
NK-92 (IL-2 2.5 ng/mL) [6]	-8.61	-19.7	-10.4	1.68	9.5
NK-YS (IL-2 2.5 ng/mL) [7]	-1.26	-3.32	-4.3	-2.46	7.41
NKL (IL-2 2.5 ng/mL) [8]	-6.59	-3.17	6.86	22.1	18.6
SNK-6 (IL-2 2.5 ng/mL) [9]	-8.3	-5.78	6.93	-1.06	30.7
YT (IL-2 2.5 ng/mL) [10]	-1.63	-5.24	0.65	14.1	7.45
[1]	-0.43	-4.83	-0.59	0.99	13.7
[11]	0.51	14	13.1	8.85	9.5
[12]	-1.26	20.1	12.4	9.93	10.7
[13]	-16.2	4.82	5.78	1.94	4.66
[14]	-2.75	5.35	5.93	-3.36	6.54

Conditions	drug sensitivity score
DERL-7 (IL-2 2.5 ng/mL) [16]	0
IMC-1 (IL-2 20 ng/mL) [17]	0.05
KAI3 (IL-2 2.5 ng/mL) [18]	2.12
KHYG-1 (IL-2 2.5 ng/mL) [19]	0
NK-92 (IL-2 2.5 ng/mL) [20]	0
NK-YS (IL-2 2.5 ng/mL) [21]	0
NKL (IL-2 2.5 ng/mL) [22]	4.12
SNK-6 (IL-2 2.5 ng/mL) [23]	1.27
YT (IL-2 2.5 ng/mL) [24]	1.18
[15]	0.21
[25]	3.07
[26]	0.81
[27]	0
[28]	0
